The results in this text go back to patent US9850283B2, “Macrocyclic inhibitors of the PD-1/PD-L1 and CD80(B7-1)/PD-L1 protein/protein interactions” (BRISTOL-MYERS SQUIBB COMPANY, priority 2013, dated 2017).

Structures are written as SMILES. Like-named read-outs stand apart in the source and are kept apart here. Starred links: 1 amine or outer side, 2 acyl side, 3 side chain; linkers in the order of their positions; H or OH if unused. Positions of bridges follow the written chain, without caps; N, C: chain ends. Non-standard residues stand in square brackets, D forms with d. Residues, ends and D or L forms follow the SMILES beside them. ξ: configuration not given here. X12 = O=C([C@H](Cc1cc(Cl)c(F)c(Cl)c1)N[*:1])[*:2]; Phe(3,4-(OMe)2) = COc1ccc(C[C@H](N)C(=O)O)cc1OC; Trp(7-Me) = Cc1cccc2c(C[C@H](N)C(=O)O)c[nH]c12; Tyr(3-Br) = N[C@@H](Cc1ccc(O)c(Br)c1)C(=O)O; Phe(4-F) = N[C@@H](Cc1ccc(F)cc1)C(=O)O; Phe(2-Me) = Cc1ccccc1C[C@H](N)C(=O)O; Bta = N[C@@H](Cc1csc2ccccc12)C(=O)O; Hyp = O=C(O)[C@@H]1C[C@@H](O)CN1; NMeF = CN[C@@H](Cc1ccccc1)C(=O)O; Pip(4-aza) = O=C(O)[C@@H]1CNCCN1; NMeNle = CCCC[C@H](NC)C(=O)O; NMeS = CN[C@@H](CO)C(=O)O; NMeA = CN[C@@H](C)C(=O)O; Dab = NCC[C@H](N)C(=O)O; Dap = NC[C@H](N)C(=O)O; ξC = NC(CS)C(=O)O; Sar = CNCC(=O)O Some results are limits rather than exact numbers.

For test [1], the target named is T1, Human PD-L1/PD-1 (Homo sapiens, UniProt Q9NZQ7).
T1 construct: made in house; host or cells: HEK293T
T1 sequence (Q9NZQ7 with tags, fused parts or gaps): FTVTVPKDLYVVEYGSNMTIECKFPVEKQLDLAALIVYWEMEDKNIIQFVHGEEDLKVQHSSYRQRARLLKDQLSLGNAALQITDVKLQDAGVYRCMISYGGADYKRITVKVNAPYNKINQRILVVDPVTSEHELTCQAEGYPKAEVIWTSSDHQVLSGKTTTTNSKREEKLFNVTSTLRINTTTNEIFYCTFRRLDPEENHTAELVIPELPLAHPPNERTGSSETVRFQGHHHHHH
Put plainly: HTRF PD-1-Ig/PD-L1-His binding assay (human PD-L1). A digest of the protocol:
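The time-resolved fluorescence signal comes from Eu-cryptate anti-Ig (1 nM) and APC anti-His (20 nM) antibodies bound to a PD-1-Ig/PD-L1-His complex. Both partners lack transmembrane regions.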
On the technique in general: TR-FRET usually uses a lanthanide donor and a delayed reading to cut background.

In test [2] the target is T2, LK35.2-hPD-L1 cells / PE-labeled PD-1-Ig (Homo sapiens, UniProt Q9NZQ7).
T2 construct: expressed in transfected cells; host or cells: LK35.2 mouse B cell line
T2 sequence (Q9NZQ7 19-290): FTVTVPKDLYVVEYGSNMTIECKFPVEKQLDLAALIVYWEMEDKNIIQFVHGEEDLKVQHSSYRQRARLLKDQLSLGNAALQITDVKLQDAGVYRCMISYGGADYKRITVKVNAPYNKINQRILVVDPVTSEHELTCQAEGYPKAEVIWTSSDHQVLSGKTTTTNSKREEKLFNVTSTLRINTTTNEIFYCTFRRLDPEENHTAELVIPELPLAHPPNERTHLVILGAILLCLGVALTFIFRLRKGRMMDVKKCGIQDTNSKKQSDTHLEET
Put plainly: LK35.2-hPD-L1 cell binding high-content screening assay. The format is cell-based. A digest of the protocol: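 Compound effect on PD-1/PD-L1 binding is measured by imaging cell-associated phycoerythrin signal. Human PD-1-Ig (PE on Ig tag, 1 nM final) is applied with compound to a murine B cell line overexpressing human PD-L1 for 1 h at 37 °C in serum-containing RPMI.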

Where [3] appears, read: cluster symbol, read-out: HTRF IC50 cluster.
Where [4] appears, read: cell binding assay, cell line not given, cluster symbol, read-out: CBA IC50 cluster.
The mark [5] stands for this setting: cluster symbol, cell line of CBA not given (LK35.2-hPD-L1 or 293T-hPD-L1), read-out: CBA IC50 cluster.

Take `CCCC[C@H]1C(=O)N[C@H](CCC(=O)O)C(=O)N[C@@H](CC(=O)O)C(=O)N[C@@H](C(C)C)C(=O)N(C)[C@@H](Cc2ccccc2)C(=O)N[C@@H](Cc2ccc(O)cc2)C(=O)N(C)CC(=O)N[C@@H](Cc2c[nH]c3ccccc23)C(=O)N[C@@H](Cc2ccc(O)cc2)C(=O)N[C@@H](CC(C)C)C(=O)N[C@H](C(=O)NCC(N)=O)CSCC(=O)N[C@@H](Cc2ccccc2)C(=O)N(C)[C@@H](Cc2ccccc2)C(=O)N1C` [Example 3527] (HELM PEPTIDE1{[O=C(C[*:3])[*:2]].F.[meF].[CCCC[C@@H](C(=O)[*:2])N(C)[*:1]].[dE].D.V.[meF].Y.[Sar].W.Y.L.C.G.[am]}$PEPTIDE1,PEPTIDE1,1:R3-14:R3$$$V2.0): the IC50 (usually the point on the concentration scale where inhibition reaches its midpoint) was in the range of 0.00676 to 0.0303 µM in test [1] (setting [3]) and 0.00478 to 0.0729 µM in test [2] (setting [4]).
The corresponding values for `CCCC[C@H]1C(=O)N(C)CC(=O)N[C@@H](CC(=O)O)C(=O)N[C@@H](C(C)C)C(=O)N(C)[C@@H](Cc2ccccc2)C(=O)N[C@@H](Cc2ccc(O)cc2)C(=O)N(C)CC(=O)N[C@@H](Cc2c[nH]c3ccccc23)C(=O)N[C@@H](Cc2ccc(OC)c(OC)c2)C(=O)N[C@@H](CC(C)C)C(=O)N[C@H](C(=O)NCC(N)=O)CSCC(=O)N[C@@H](Cc2ccccc2)C(=O)N(C)[C@@H](Cc2ccccc2)C(=O)N1C` [Example 3541] ({CH2CO}-F[NMeF][NMeNle][Sar]DV[NMeF]Y[Sar]W[Phe(3,4-(OMe)2)]LCG-NH2; thioether N-13) are over 0.0305 µM and over 0.0743 µM.
Regarding `CCCC[C@H]1C(=O)N(C)CC(=O)N[C@@H](CC(=O)O)C(=O)N[C@@H](C(C)C)C(=O)N(C)[C@@H](Cc2ccccc2)C(=O)N[C@@H](Cc2ccc(O)cc2)C(=O)N(C)CC(=O)N[C@@H](Cc2c[nH]c3ccccc23)C(=O)N[C@@H](Cc2ccc(O)cc2)C(=O)N[C@@H](CC(C)C)C(=O)N[C@H](C(=O)NCC(N)=O)CSCC(=O)N[C@@H](Cc2ccccc2C)C(=O)N(C)[C@@H](Cc2ccccc2)C(=O)N1C` [Example 3105] ({CH2CO}-[Phe(2-Me)][NMeF][NMeNle][Sar]DV[NMeF]Y[Sar]WYLCG-NH2; thioether N-13), the IC50 was over 0.0305 µM in test [1] (setting [3]) and over 0.0743 µM in test [2] (setting [5]).
As to `CCCC[C@H]1C(=O)N(C)[C@@H](CCCC)C(=O)N[C@@H](CCN)C(=O)N[C@H](C(=O)NCC(N)=O)CSCC(=O)N[C@@H](Cc2ccc(O)c(Br)c2)C(=O)N(C)[C@@H](C)C(=O)N[C@@H](CC(N)=O)C(=O)N2CCC[C@H]2C(=O)N[C@@H](Cc2cnc[nH]2)C(=O)N[C@@H](CC(C)C)C(=O)N(C)CC(=O)N[C@@H](Cc2c[nH]c3ccccc23)C(=O)N[C@@H](CCN)C(=O)N[C@@H](Cc2c[nH]c3ccccc23)C(=O)N1C` [Example 6043] ({CH2CO}-[Tyr(3-Br)][NMeA]NPHL[Sar]W[Dab]W[NMeNle][NMeNle][Dab]CG-NH2; thioether N-14), the IC50 was in the range of 0.000385 to 0.00674 µM in test [1] (setting [3]) and 0.00478 to 0.0729 µM in test [2] (setting [4]).
The corresponding values for `CCCC[C@H]1C(=O)N(C)[C@@H](CCCC)C(=O)N[C@@H](CCCNC(=N)N)C(=O)NC(C(=O)NCC(N)=O)CSCC(=O)N[C@@H](Cc2ccc(O)cc2)C(=O)N(C)[C@@H](CO)C(=O)N[C@@H](CC(N)=O)C(=O)N2CCC[C@H]2C(=O)N[C@@H](Cc2cnc[nH]2)C(=O)N[C@@H](CC(C)C)C(=O)N2C[C@H](O)C[C@H]2C(=O)N[C@@H](Cc2c[nH]c3ccccc23)C(=O)N[C@@H](CO)C(=O)N[C@@H](Cc2csc3ccccc23)C(=O)N1C` (stereo partly shown) [Example 9039] ({CH2CO}-Y[NMeS]NPHL[Hyp]WS[Bta][NMeNle][NMeNle]R[ξC]G-NH2; thioether N-14) are 0.000385 to 0.00674 µM and 0.000158 to 0.00471 µM.
As to `CCCC[C@H]1C(=O)N(C)CC(=O)N[C@@H](CC(=O)O)C(=O)N[C@@H](C(C)C)C(=O)N(C)[C@@H](Cc2ccccc2)C(=O)N[C@@H](Cc2ccc(O)cc2)C(=O)N(C)CC(=O)N[C@@H](Cc2c[nH]c3ccccc23)C(=O)N[C@@H](Cc2ccc(O)cc2)C(=O)N[C@@H](CC(C)C)C(=O)N[C@H](C(=O)NCC(N)=O)CSCC(=O)N[C@@H](Cc2cc(Cl)c(F)c(Cl)c2)C(=O)N(C)[C@@H](Cc2ccccc2)C(=O)N1C` [Example 3185] ({CH2CO}-[X12][NMeF][NMeNle][Sar]DV[NMeF]Y[Sar]WYLCG-NH2; thioether N-13), the IC50 was 0.00676 to 0.0303 µM in test [1] (setting [3]) and 0.00478 to 0.0729 µM in test [2] (setting [5]).
The matching figures for `CCCC[C@H]1C(=O)N(C)[C@@H](CCCC)C(=O)N[C@@H](CCCNC(=N)N)C(=O)N[C@H](C(=O)NCC(N)=O)CSCC(=O)N[C@@H](Cc2ccc(O)cc2)C(=O)N(C)[C@@H](C)C(=O)N[C@@H](CC(N)=O)C(=O)N2CCC[C@H]2C(=O)N[C@@H](Cc2cnc[nH]2)C(=O)N[C@@H](CC(C)C)C(=O)N2CCC[C@H]2C(=O)N[C@@H](Cc2c[nH]c3ccccc23)C(=O)N[C@@H](CO)C(=O)N[C@@H](Cc2c[nH]c3c(C)cccc23)C(=O)N1C` [Example 1144] ({CH2CO}-Y[NMeA]NPHLPWS[Trp(7-Me)][NMeNle][NMeNle]RCG-NH2; thioether N-14): over 0.0305 µM and 0.00478 to 0.0729 µM.
As for `CCCC[C@H]1C(=O)N(C)[C@@H](CCCC)C(=O)N[C@@H](CC(C)C)C(=O)N[C@H](C(=O)NCC(N)=O)CSCC(=O)N[C@@H](Cc2ccc(O)cc2)C(=O)N(C)[C@@H](C)C(=O)N[C@@H](CC(N)=O)C(=O)N2CCC[C@H]2C(=O)N[C@@H](CN)C(=O)N[C@@H](CC(C)C)C(=O)N2CCNC[C@H]2C(=O)N[C@@H](Cc2c[nH]c3ccccc23)C(=O)N[C@@H](CCN)C(=O)N[C@@H](Cc2c[nH]c3ccccc23)C(=O)N1C` [Example 6050] ({CH2CO}-Y[NMeA]NP[Dap]L[Pip(4-aza)]W[Dab]W[NMeNle][NMeNle]LCG-NH2; thioether N-14), the IC50 in test [1] (setting [3]) lay in the range of 0.000385 to 0.00674 µM; in test [2] (setting [4]), 0.00478 to 0.0729 µM.
With `CCCC[C@H]1C(=O)N(C)[C@@H](CCCC)C(=O)N[C@@H](CC(C)C)C(=O)N[C@H](C(=O)NCC(N)=O)CSCC(=O)N[C@@H](Cc2ccccc2)C(=O)N(C)[C@@H](C)C(=O)N[C@@H](CC(N)=O)C(=O)N2CCC[C@H]2C(=O)N[C@@H](Cc2cnc[nH]2)C(=O)N[C@@H](CC(C)C)C(=O)N(C)CC(=O)N[C@@H](Cc2c[nH]c3ccccc23)C(=O)N[C@@H](CO)C(=O)N[C@@H](Cc2c[nH]c3ccccc23)C(=O)N1C` [Example 5017] ({CH2CO}-F[NMeA]NPHL[Sar]WSW[NMeNle][NMeNle]LCG-NH2; thioether N-14), the IC50 in test [1] (value given instead of cluster, read-out: HTRF IC50 value) is 0.0113 µM; in test [2] (cell binding assay, cell line not given, value given instead of cluster, read-out: CBA IC50 value) it was 0.0129 µM.
For the molecule `CCCC[C@H]1C(=O)N(C)CC(=O)N[C@@H](CC(=O)O)C(=O)N[C@@H](C(C)C)C(=O)N(C)[C@@H](Cc2ccccc2)C(=O)N[C@@H](Cc2ccc(O)cc2)C(=O)N(C)CC(=O)N[C@@H](Cc2c[nH]c3ccccc23)C(=O)N[C@@H](Cc2ccc(O)cc2)C(=O)N[C@@H](CC(C)C)C(=O)N[C@H](C(=O)NCC(N)=O)CSCC(=O)N[C@@H](Cc2ccc(O)cc2)C(=O)N(C)[C@@H](Cc2ccccc2)C(=O)N1C` [Example 3065] (HELM PEPTIDE1{[O=C(C[*:3])[*:2]].Y.[meF].[CCCC[C@@H](C(=O)[*:2])N(C)[*:1]].[Sar].D.V.[meF].Y.[Sar].W.Y.L.C.G.[am]}$PEPTIDE1,PEPTIDE1,1:R3-14:R3$$$V2.0), the 50% inhibitory concentration (IC50) was over 0.0305 µM in test [1] (setting [3]) and over 0.0743 µM in test [2] (setting [5]).
With `CCCC[C@H]1C(=O)N(C)[C@@H](CCCC)C(=O)N[C@@H](CCCNC(=N)N)C(=O)N[C@H](C(=O)NCC(N)=O)CSCC(=O)N[C@@H](Cc2ccc(F)cc2)C(=O)N(C)[C@@H](C)C(=O)N[C@@H](CC(N)=O)C(=O)N2CCC[C@H]2C(=O)N[C@@H](Cc2cnc[nH]2)C(=O)N[C@@H](CC(C)C)C(=O)N2C[C@H](O)C[C@H]2C(=O)N[C@@H](Cc2c[nH]c3ccccc23)C(=O)N[C@@H](CO)C(=O)N[C@@H](Cc2c[nH]c3ccccc23)C(=O)N1C` [Example 7047] ({CH2CO}-[Phe(4-F)][NMeA]NPHL[Hyp]WSW[NMeNle][NMeNle]RCG-NH2; thioether N-14), the concentration for half-maximal inhibition (IC50) in test [1] (setting [3]) fell in the range of 0.000385 to 0.00674 µM; in test [2] (setting [4]) it was 0.00478 to 0.0729 µM.
